Reference: PMC8704709, “Improved Anticancer Activities of a New Pentafluorothio-Substituted Vorinostat-Type Histone Deacetylase Inhibitor” (Pharmaceuticals, 2021)

Key:
[1] = test system: caspase-3 activity in DU145 cells; experiment: Apoptosis-specific caspase-3 activation (AC-DEVD-AMC cleavage); type: cell-based, human; details: 24 h treatment, 1–10 µM
Experimental: (§1) Changes in caspase-3 activity were measured by the cleavage of the fluorogenic substrate AC-DEVD-AMC (EMD Millipore, Billerica, MA, USA), as described previously. […] Subsequently, the lysates were incubated for 1 h at 37 °C with a substrate solution containing 20 μg/mL AC-DEVD-AMC, 20 mM HEPES, 10% glycerol and 2 mM DTT at pH 7.5.

[2] = test system: caspase-3 activity in Hep-G2 cells; experiment: as above; type: cell-based, human; details: 24 h treatment, 1–10 µM
Experimental: as §1

Hep-G2 cells [3] = experiment: Unspecific cytotoxicity (LDH release); type: cell-based, human; details: 1–10 µM, 3 and 24 h
SupT11 cells = experiment: IC50 by Annexin-V/7AAD dual staining, flow cytometry; type: cell-based; details: Homo sapiens, as determined after 48 h, means ± SEM, n ≥ 3, read-out: Growth inhibitory activity IC50, SupT11
Experimental: (§2) Stock solutions (10 mM) prepared by dissolution in DMSO were stored at −20 °C. Working solutions were always freshly prepared before each experiment by dilution of stock solution with medium. The final DMSO concentration never exceeded 0.25%. Treatment-induced changes in cell number were determined by crystal violet (N-hexamethylpararosaniline from Sigma Aldrich) staining. 1000 cells/well (DU145) or 1500 cells/well (Hep-G2) were seeded in 96-well plates and maintained for adherence in an incubator (37 °C, 5% CO2, humidified atmosphere) for 48 h prior to the beginning of the treatment. […] Thereafter, the cells were fixed with 1% glutaraldehyde and stained with 0.1% crystal violet. The unbound dye was removed by rinsing with water. Bound crystal violet was solubilized with 0.2% Triton X-100 (Sigma-Aldrich). Light extinction of crystal violet, which increases linearly with the cell number, was analyzed at 570 nm using an ELISA-Reader (Dynex Technologies, Denkendorf, Germany). For T-cell leukemia/lymphoma cell lines apoptosis was determined using dual staining for Annexin-V and 7AAD via flow cytometry.

Jurkat cells = experiment: as above; type: cell-based; details: Homo sapiens, as determined after 48 h, means ± SEM, n ≥ 3, read-out: Growth inhibitory activity IC50, Jurkat
Experimental: as §2

Hut78 cells = experiment: as above; type: cell-based; details: Homo sapiens, as determined after 48 h, means ± SEM, n ≥ 3, read-out: Growth inhibitory activity IC50, Hut78
Experimental: as §2

SMZ1 cells = experiment: as above; type: cell-based; details: Homo sapiens, as determined after 48 h, means ± SEM, n ≥ 3, read-out: Growth inhibitory activity IC50, SMZ1
Experimental: as §2

[4] = test system: DU145 prostate carcinoma cells; experiment: Antiproliferative activity assay (crystal violet staining); type: cell-based; details: Homo sapiens, DU-145, as determined after 48 h, means ± SEM, n ≥ 3, read-out: Growth inhibitory activity IC50, DU145
Experimental: as §2

[5] = test system: Hep-G2 hepatoblastoma cells; experiment: as above; type: cell-based; details: Homo sapiens, HepG2, as determined after 48 h, means ± SEM, n ≥ 3, read-out: Growth inhibitory activity IC50, Hep-G2
Experimental: as §2

DU145 cells [6] = experiment: Unspecific cytotoxicity (LDH release); type: cell-based, human; details: 1–10 µM, 3 and 24 h
Experimental: To exclude unspecific cytotoxicity as the driving mode of action for antiproliferative effects, the release of lactate dehydrogenase (LDH) from DU145 cells was determined after 3 h and 24 h of treatment using the Cytotoxicity Detection Kit PLUS LDH (Roche Diagnostics GmbH, Mannheim, Germany). The assay was performed as described earlier. Cytotoxicity was determined by subtracting the percentage of LDH release into the supernatant under control conditions of those from treated samples. Measurements were performed in duplicate in n = 3 independent experiments and mean percentage changes ± SEM as compared to controls are shown.

DU145 cells [7] = experiment: Western blot in DU145 cells (acetyl-H3, PARP, EGFR, P-mTOR); type: cell-based, human
Experimental: (§3) Western blots were performed as described earlier. Cells were seeded in 100 mm petri dishes, grown to almost confluency, treated for 24 h, washed and frozen, followed by lysis with RIPA Buffer, added with one cOmplete™ Mini protease Inhibitor tablet/10 mL (Roche), and quantification with Pierce^TM BCA Protein Assay Kit (Thermo Fisher Scientific). Thereafter protein levels were normalized to untreated controls so equal protein loading of 20 µg/lane. Laemmli Buffer and β-mercaptoethanol were added before probes were desaturated at 96 °C for 10 min. First, 7.5% or 12% SDS gels (Biorad, Munich, Germany) were loaded with proteins and electrophoresis was done. Thereafter, proteins were transferred to activated polyvinylidene difluoride membranes (PVDF) by electroblotting. Finally, the membranes were blocked with 1% BSA and incubated with primary antibodies over night at 4 °C.
(§4) Blots were washed three times with 1% TBS-Tween and incubated with anti-mouse or anti-rabbit peroxidase-coupled anti-IgG secondary antibodies (1:5000–1:10,000) at room temperature for 60 min. Subsequently, antibody bondage was illustrated using Clarity and Clarity Max ECL Western Blotting Substrates (Biorad, Munich, Germany) for detection and Celvin-S developer (Biostep, software SnapAndGo Vs 1.8.1) for development. […] Values were normalized to β-actin expression, which served as a loading control and compared to untreated control expressions which was set at 1. The mean ± SEM of the relative values to control are illustrated with Graph Pad Prism 8.

[8] = test system: Human HDAC enzymes derived from HeLa cell nuclear extracts (pan-HDAC); experiment: Fluorogenic pan-HDAC activity assay; type: biochemical; details: cell free, 1–10 µM tested
Hep-G2 cells [9] = experiment: Western blot in Hep-G2 cells (acetyl-H3, Apaf-1, Bcl-2); type: cell-based, human; details: 24 h
Experimental: as §3, with “°C. […] Only the Jurkat cells had already a high level of α-tubulin in untreated cells and, thus, drug-induced changes were not detectable in these cells.” for “°C.”
as §4

Structure (SMILES): O=C(CCCCCCC(=O)Nc1ccc(S(F)(F)(F)(F)F)cc1)NO [SF5-SAHA]
- caspase-3 activation [1]: 5–6 times of the activity of untreated cells
- caspase-3 activation [2]: 5–6 times of the activity of untreated cells
- LDH release (unspecific cytotoxicity) (Hep-G2 cells [3]): LDH levels were even decreased
- IC50 (SupT11 cells): 3080 ± 330 nM
- IC50 (Jurkat cells): 760 ± 60 nM
- IC50 (Hut78 cells): 2400 ± 400 nM
- IC50 (SMZ1 cells): 1580 ± 290 nM
- IC50 [4]: 730 ± 1080 nM
- IC50 [5]: 1790 ± 1060 nM
- LDH release (unspecific cytotoxicity) (DU145 cells [6]): did not induce significant increases in LDH release
- phosphorylated mTOR (P-mTOR) level (DU145 cells [7]): reduced the level of phosphorylated (activated) mTOR
- EGFR protein expression (DU145 cells [7]; 24 h): significant downregulation of EGFR protein expression
- PARP cleavage (DU145 cells [7]; 24 h): detection of PARP cleavage in treated DU145 cells
- acetylated histone H3 level (DU145 cells [7]; 24 h): dose-dependent rise of H3 acetylation
- pan-HDAC inhibition IC50 (in words) [8]: submicromolar range
- Bcl-2 expression (Hep-G2 cells [9]; 2 µM and 4 µM): downregulated
- Apaf-1 expression (Hep-G2 cells [9]; 2 and 4 µM): increased Apaf-1 expression
- acetylated histone H3 level (Hep-G2 cells [9]): dose-dependent rise of H3 acetylation
